Key:
Format in all cases: cell-based
human TRPV1 [1] = target: T1, human TRPV1 (Homo sapiens, UniProt Q8NER1); experiment: Pre-Incubation Test (FLIPR intracellular calcium, HEK-293 cells, capsaicin activator); details: test compound final 100 μM
T1 construct: expressed in transfected cells; host or cells: HEK-293
Experimental: (§1) The Pre-Incubation Test and Direct Addition Test Methods, as defined herein, can be conducted on either TRPV1 or TRPA1 receptors.
(§2) Pre-Incubation Test Method: First, the intracellular calcium ion (Ca^+2) levels in TRPV1 and TRPA1 receptors is measured. HEK-293 (human embryonic kidney) cells stably transfected with human TRPV1 or TRPA1 are grown in 15 ml growth medium [high glucose DMEM (Dulbecco's Modification of Eagle's Medium) supplemented with 10% FBS (fetal bovine serum), 100 μg/ml Penicillin/streptomycin, 100 μg/ml G418] in a 75 Cm^2 flask for 3 days at 33° C. in a mammalian cell culture incubator set at 5% CO2. Cells are detached with addition of 10 ml of PBS (phosphate buffered saline) by hand shaking gently. […] Fluo-4 is a fluorescent dye used for quantifying cellular Ca^2+ concentrations in the 100 nM to 1 microM range. […]
(§3) The pellet cells are re-suspended in 10 ml assay buffer and 90 μl aliquots (50,000 cells) per well delivered to a 96-well assay plate containing 10 μl of test compounds (1 mM in assay buffer, final concentration 100 μM) or buffer control and incubated at room temperature for 30 minutes. After 30 minutes, the plate is placed into a fluorometric imaging plate reader (FLIPR^384 from Molecular Devices) and basal fluorescence recorded (excitation wave length 488 nm and emission wave length 510 nm). […]

human TRPA1 [2] = target: T2, human TRPA1 (Homo sapiens, UniProt O75762); experiment: Pre-Incubation Test (FLIPR intracellular calcium, HEK-293 cells, AITC activator); details: test compound final 100 μM
T2 construct: expressed in transfected cells; host or cells: HEK-293
T2 sequence (O75762 whole entry): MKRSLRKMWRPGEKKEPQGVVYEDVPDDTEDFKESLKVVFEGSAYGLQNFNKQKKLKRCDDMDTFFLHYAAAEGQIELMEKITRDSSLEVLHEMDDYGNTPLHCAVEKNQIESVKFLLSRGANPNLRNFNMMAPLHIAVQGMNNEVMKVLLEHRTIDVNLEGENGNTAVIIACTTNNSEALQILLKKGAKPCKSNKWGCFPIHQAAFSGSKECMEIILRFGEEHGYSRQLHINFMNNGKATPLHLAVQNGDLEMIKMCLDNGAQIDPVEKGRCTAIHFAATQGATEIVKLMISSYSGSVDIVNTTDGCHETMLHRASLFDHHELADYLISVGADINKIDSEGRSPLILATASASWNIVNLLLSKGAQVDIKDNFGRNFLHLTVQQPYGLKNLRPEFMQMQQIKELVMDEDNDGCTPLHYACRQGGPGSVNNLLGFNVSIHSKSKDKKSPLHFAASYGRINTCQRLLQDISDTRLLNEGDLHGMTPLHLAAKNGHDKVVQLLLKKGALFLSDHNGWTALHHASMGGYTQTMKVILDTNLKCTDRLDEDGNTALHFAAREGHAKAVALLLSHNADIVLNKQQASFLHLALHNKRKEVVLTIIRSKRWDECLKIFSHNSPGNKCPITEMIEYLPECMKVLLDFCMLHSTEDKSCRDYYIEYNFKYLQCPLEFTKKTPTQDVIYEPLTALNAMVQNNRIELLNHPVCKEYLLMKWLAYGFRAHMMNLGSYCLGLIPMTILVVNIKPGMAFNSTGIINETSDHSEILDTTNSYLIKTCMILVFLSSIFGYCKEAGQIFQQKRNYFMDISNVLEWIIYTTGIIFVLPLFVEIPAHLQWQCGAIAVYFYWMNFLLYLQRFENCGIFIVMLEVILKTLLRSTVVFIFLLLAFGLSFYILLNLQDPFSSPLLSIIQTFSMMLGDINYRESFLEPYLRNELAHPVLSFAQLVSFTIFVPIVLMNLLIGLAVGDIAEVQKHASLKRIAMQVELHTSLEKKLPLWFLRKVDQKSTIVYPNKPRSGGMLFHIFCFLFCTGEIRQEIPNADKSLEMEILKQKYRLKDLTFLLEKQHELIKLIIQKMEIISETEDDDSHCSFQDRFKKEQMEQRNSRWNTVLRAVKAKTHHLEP
Experimental: as §1, §2, §3

human TRPA1 [3] = target: T2, human TRPA1; experiment: Direct Addition Test (FLIPR intracellular calcium, HEK-293 cells); details: compound final 100 μM
Experimental: as §1
(§4) Pre-Incubation Test Method: First, the intracellular calcium ion (Ca^+2) levels in TRPV1 and TRPA1 receptors is measured. HEK-293 (human embryonic kidney) cells stably transfected with human TRPV1 or TRPA1 are grown in 15 ml growth medium [high glucose DMEM (Dulbecco's Modification of Eagle's Medium) supplemented with 10% FBS (fetal bovine serum), 100 μg/ml Penicillin/streptomycin, 100 μg/ml G418] in a 75 Cm^2 flask for 3 days at 33° C. in a mammalian cell culture incubator set at 5% CO2. Cells are detached with addition of 10 ml of PBS (phosphate buffered saline) by hand shaking gently. Cells are transferred to a 50 ml tube and centrifuged at 850 rpm for 3 minutes to remove PBS. After centrifugation, a pellet of cells is formed in the bottom of the tube separating them from the supernatant solution. The supernatant is discarded and the cell pellet is suspended in 1 ml of fresh growth medium to which 5 μl (12.5 μg) of Fluo-4 AM (Molecular Probes, Inc.) calcium indicator is added and incubated for 30 min with gentle shaking on a plate shaker. Fluo-4 is a fluorescent dye used for quantifying cellular Ca^2+ concentrations in the 100 nM to 1 microM range. At the end of the 30 minutes, 45 ml of assay buffer [1×HBSS (Hank's Balanced Salt Solution), 20 mM HEPES (4-(2-Hydroxyethyl)-1-piperazineethanesulfonic acid)] is added to wash cells and the resulting combination is then centrifuged at 850 rpm for 3 minutes to remove excess buffer and Fluo-4 AM calcium indicator.
(§5) The pellet cells are re-suspended in 10 ml assay buffer and 90 μl aliquots (50,000 cells) per well delivered to a 96-well assay plate containing 10 μl of test compounds (1 mM in assay buffer, final concentration 100 μM) or buffer control and incubated at room temperature for 30 minutes. After 30 minutes, the plate is placed into a fluorometric imaging plate reader (FLIPR^384 from Molecular Devices) and basal fluorescence recorded (excitation wave length 488 nm and emission wave length 510 nm). […] Then 20 μl of the activators [1.8 μM Capsaicin (final concentration 300 nM) for TRPV1 or 300 μM AITC (final concentration 50 μM) for TRPA1 is added by FLIPR automatically and fluorescence recorded immediately.
(§6) Direct Addition Test Method (for determining the direct effect of test compounds on TRPV1 and TRPA1): All procedures are same as the pre-incubation test except 10 μl assay buffer instead of 10 μl test compounds in the 96-well assay plates. The fluorescence is measured immediately after addition of 20 μl of 600 μM each compound (final concentration 100 μM). […] The percentage of up-regulation or down-regulation is calculated based on the fluorescence measurement.

human TRPV1 [4] = target: T1, human TRPV1; experiment: as above; details: compound final 100 μM
Experimental: as §1, §4, §5, §6

[5] = calculated from fluorescence relative to activator

T1 sequence (Q8NER1 whole entry): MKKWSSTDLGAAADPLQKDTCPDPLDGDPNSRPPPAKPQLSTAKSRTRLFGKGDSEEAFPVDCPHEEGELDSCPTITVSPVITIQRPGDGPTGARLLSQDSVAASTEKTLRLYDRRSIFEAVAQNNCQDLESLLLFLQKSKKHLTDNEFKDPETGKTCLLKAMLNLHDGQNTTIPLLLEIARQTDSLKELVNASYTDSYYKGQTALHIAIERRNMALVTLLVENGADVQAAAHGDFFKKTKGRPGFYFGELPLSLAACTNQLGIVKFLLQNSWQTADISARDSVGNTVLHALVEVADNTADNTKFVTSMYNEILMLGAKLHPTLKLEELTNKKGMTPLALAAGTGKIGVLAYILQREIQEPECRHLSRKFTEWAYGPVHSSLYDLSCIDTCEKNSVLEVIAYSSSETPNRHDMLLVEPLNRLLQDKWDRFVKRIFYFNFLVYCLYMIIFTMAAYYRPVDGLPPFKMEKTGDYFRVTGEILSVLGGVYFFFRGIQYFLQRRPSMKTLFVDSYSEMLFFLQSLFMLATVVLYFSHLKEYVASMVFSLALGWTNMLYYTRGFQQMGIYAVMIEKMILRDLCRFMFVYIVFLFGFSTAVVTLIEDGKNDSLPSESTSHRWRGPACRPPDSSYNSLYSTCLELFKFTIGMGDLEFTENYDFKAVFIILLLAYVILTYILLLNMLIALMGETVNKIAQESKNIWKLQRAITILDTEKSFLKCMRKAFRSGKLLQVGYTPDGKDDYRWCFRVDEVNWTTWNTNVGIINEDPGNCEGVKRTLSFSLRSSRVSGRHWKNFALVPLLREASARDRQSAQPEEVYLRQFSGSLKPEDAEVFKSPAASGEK

Fluorescence value after adding Iso E Super (human TRPV1 [1]; 30 min at room temperature, then capsaicin final 300 nM): 2334.51 fluorescence units | % Regulation (human TRPV1 [1]; [5]): 21.82% | Fluorescence value after adding Iso E Super (human TRPA1 [2]; 30 min at room temperature, then AITC final 50 μM): −57.37 fluorescence units | % Regulation (human TRPA1 [2]; [5]): −0.40% | % Regulation (human TRPA1 [3]; [5]): 11.53% | Fluorescence value after adding Iso E Super (human TRPA1 [3]; measured immediately): 1386.593 fluorescence units | % Regulation (human TRPV1 [4]; [5]): −0.71% | Fluorescence value after adding Iso E Super (human TRPV1 [4]; measured immediately): −82.62 fluorescence units
Compound: CC(=O)C1(C)CC2=C(CCCC2(C)C)CC1C (centres unmarked) [Iso E Super, 1-(1,2,3,4,5,6,7,8-octahydro-2,3,8,8-tetramethyl-2naphthalenyl)-ethan-1-one]

Reference: patent US9044429B2, “Personal care compositions comprising a methyl naphthalenyl ketone or a derivative thereof” (The Gillette Company, priority 2010, dated 2015)
